Assay results taken from ChEMBL document CHEMBL3885881, “DrugMatrix”.

Species: Rattus norvegicus
Assay: DrugMatrix - Regimen: Daily Repeat
Assay type: toxicity, organism-based, Sprague-Dawley
Design: regimen Daily Repeat, gender Male, age 6-8 weeks
Details: in vivo, 0 mg/kg, dose level Control, vehicle 100 % SALINE; for ABSOLUTE BASOPHIL / ABSOLUTE EOSINOPHIL / ABSOLUTE LYMPHOCYTE / ABSOLUTE MONOCYTE / ABSOLUTE SEGMENTED NEUTROPHIL / BASOPHIL / EOSINOPHIL / ERYTHROCYTE COUNT / HEMATOCRIT / HEMOGLOBIN / LEUKOCYTE COUNT / LYMPHOCYTE / MEAN CORPUSCULAR HEMOGLOBIN / MEAN CORPUSCULAR HEMOGLOBIN CONCENTRATION / MEAN CORPUSCULAR VOLUME / MONOCYTE / NEUTROPHIL / NUCLEATED RED BLOOD CELLS / PLATELET COUNT: tissue Blood; for ALANINE AMINOTRANSFERASE / ALBUMIN / ALKALINE PHOSPHATASE / ASPARTATE AMINOTRANSFERASE / BLOOD UREA NITROGEN / CARBON DIOXIDE / CHLORIDE / CHOLESTEROL / CREATINE PHOSPHOKINASE / CREATININE / GLUCOSE / LIPASE / PHOSPHORUS / POTASSIUM / SODIUM / TOTAL BILIRUBIN / TOTAL PROTEIN / URIC ACID: tissue Plasma
[1] = po, 72 h, route oral GAVAGE, time 3 day
[2] = po, 120 h, route oral GAVAGE, time 5 day

## COc1cccc2c1C(=O)c1c(O)c3c(c(O)c1C2=O)C[C@@](O)(C(C)=O)C[C@@H]3O[C@H]1C[C@H](N)[C@H](O)[C@H](C)O1 [DAUNORUBICIN]
iv, 72 h, time 3 day
  ABSOLUTE BASOPHIL: 0 CELLS/uL
  ABSOLUTE EOSINOPHIL: 21.67 CELLS/uL
  ABSOLUTE LYMPHOCYTE: 10193.67 CELLS/uL
  ABSOLUTE MONOCYTE: 165.83 CELLS/uL
  ABSOLUTE SEGMENTED NEUTROPHIL: 702.17 CELLS/uL
  BASOPHIL: 0%
  EOSINOPHIL: 0.17%
  ERYTHROCYTE COUNT: 5.39 x10E6/uL
  HEMATOCRIT: 34.62%
  HEMOGLOBIN: 13.8 G/DL
  LEUKOCYTE COUNT: 11.08 x10E3/uL
  LYMPHOCYTE: 91.83%
  MEAN CORPUSCULAR HEMOGLOBIN: 25.68 pg
  MEAN CORPUSCULAR HEMOGLOBIN CONCENTRATION: 39.9 G/DL
  MEAN CORPUSCULAR VOLUME: 64.37 fL
  MONOCYTE: 1.5%
  NEUTROPHIL: 6.5%
  NUCLEATED RED BLOOD CELLS: 0 /100WBC
  PLATELET COUNT: 1202.83 x10E3/uL
  ALANINE AMINOTRANSFERASE: 55.5 u/L
  ALBUMIN: 4.22 G/DL
  ALKALINE PHOSPHATASE: 406.83 u/L
  ASPARTATE AMINOTRANSFERASE: 101.5 u/L
  BLOOD UREA NITROGEN: 13.5 mg/dL
  CARBON DIOXIDE: 30.33 mmol/L
  CHLORIDE: 102.17 MEQ/L
  CHOLESTEROL: 63.67 mg/dL
  CREATINE PHOSPHOKINASE: 732.67 u/L
  CREATININE: 0.2 mg/dL
  GLUCOSE: 157 mg/dL
  LIPASE: 10.83 u/L
  PHOSPHORUS: 12.68 mg/dL
  POTASSIUM: 5.67 MEQ/L
  SODIUM: 144 MEQ/L
  TOTAL BILIRUBIN: 0.15 mg/dL
  TOTAL PROTEIN: 6.02 G/DL
  URIC ACID: 1.55 mg/dL
iv, 120 h, time 5 day
  ABSOLUTE BASOPHIL: 0 CELLS/uL
  ABSOLUTE EOSINOPHIL: 17 CELLS/uL
  ABSOLUTE LYMPHOCYTE: 11849.17 CELLS/uL
  ABSOLUTE MONOCYTE: 69.83 CELLS/uL
  ABSOLUTE SEGMENTED NEUTROPHIL: 730.67 CELLS/uL
  BASOPHIL: 0%
  EOSINOPHIL: 0.17%
  ERYTHROCYTE COUNT: 5.93 x10E6/uL
  HEMATOCRIT: 37.42%
  HEMOGLOBIN: 14.4 G/DL
  LEUKOCYTE COUNT: 12.67 x10E3/uL
  LYMPHOCYTE: 93.17%
  MEAN CORPUSCULAR HEMOGLOBIN: 24.32 pg
  MEAN CORPUSCULAR HEMOGLOBIN CONCENTRATION: 38.5 G/DL
  MEAN CORPUSCULAR VOLUME: 63.08 fL
  MONOCYTE: 0.5%
  NEUTROPHIL: 6.17%
  NUCLEATED RED BLOOD CELLS: 0 /100WBC
  PLATELET COUNT: 1170.5 x10E3/uL
  ALANINE AMINOTRANSFERASE: 51 u/L
  ALBUMIN: 4.12 G/DL
  ALKALINE PHOSPHATASE: 392.67 u/L
  ASPARTATE AMINOTRANSFERASE: 81.67 u/L
  BLOOD UREA NITROGEN: 16.17 mg/dL
  CARBON DIOXIDE: 30.67 mmol/L
  CHLORIDE: 100.5 MEQ/L
  CHOLESTEROL: 64.83 mg/dL
  CREATINE PHOSPHOKINASE: 242.67 u/L
  CREATININE: 0.2 mg/dL
  GLUCOSE: 186.83 mg/dL
  LIPASE: 10.83 u/L
  PHOSPHORUS: 11.67 mg/dL
  POTASSIUM: 5.51 MEQ/L
  SODIUM: 142.55 MEQ/L
  TOTAL BILIRUBIN: 0.22 mg/dL
  TOTAL PROTEIN: 6.08 G/DL
  URIC ACID: 1.85 mg/dL
[1]
  ABSOLUTE BASOPHIL: 140 cells/µL
  ABSOLUTE EOSINOPHIL: 43.3 cells/µL
  ABSOLUTE LYMPHOCYTE: 7570 cells/µL
  ABSOLUTE MONOCYTE: 160 cells/µL
  BASOPHIL: 1.47%
  EOSINOPHIL: 0.47%
  ERYTHROCYTE COUNT: 6.68 x10E6/uL
  HEMATOCRIT: 44.33%
  HEMOGLOBIN: 14.43 G/DL
  LEUKOCYTE COUNT: 9.33 x10E3/uL
  LYMPHOCYTE: 81.23%
  MEAN CORPUSCULAR HEMOGLOBIN: 21.67 pg
  MEAN CORPUSCULAR HEMOGLOBIN CONCENTRATION: 32.6 G/DL
  MEAN CORPUSCULAR VOLUME: 66.43 fL
  MONOCYTE: 1.73%
  NEUTROPHIL: 14.7%
  PLATELET COUNT: 1341.67 x10E3/uL
  ALANINE AMINOTRANSFERASE: 31 u/L
  ALBUMIN: 4.03 G/DL
  ALKALINE PHOSPHATASE: 447 u/L
  ASPARTATE AMINOTRANSFERASE: 61.33 u/L
  BLOOD UREA NITROGEN: 15.67 mg/dL
  CARBON DIOXIDE: 43 mmol/L
  CHLORIDE: 103.33 MEQ/L
  CHOLESTEROL: 83.67 mg/dL
  CREATINE PHOSPHOKINASE: 174.33 u/L
  CREATININE: 0.4 mg/dL
  GLUCOSE: 173 mg/dL
  LIPASE: 17.33 u/L
  PHOSPHORUS: 10.27 mg/dL
  POTASSIUM: 6.47 MEQ/L
  SODIUM: 143.67 MEQ/L
  TOTAL BILIRUBIN: 0.37 mg/dL
  TOTAL PROTEIN: 6.63 G/DL
  URIC ACID: 1.03 mg/dL
[2]
  ABSOLUTE BASOPHIL: 53.3 cells/µL
  ABSOLUTE EOSINOPHIL: 210 cells/µL
  ABSOLUTE LYMPHOCYTE: 8220 cells/µL
  ABSOLUTE MONOCYTE: 200 cells/µL
  BASOPHIL: 0.53%
  EOSINOPHIL: 2.1%
  ERYTHROCYTE COUNT: 7 x10E6/uL
  HEMATOCRIT: 44%
  HEMOGLOBIN: 14.53 G/DL
  LEUKOCYTE COUNT: 10.44 x10E3/uL
  LYMPHOCYTE: 78.07%
  MEAN CORPUSCULAR HEMOGLOBIN: 20.77 pg
  MEAN CORPUSCULAR HEMOGLOBIN CONCENTRATION: 33 G/DL
  MEAN CORPUSCULAR VOLUME: 62.87 fL
  MONOCYTE: 1.87%
  NEUTROPHIL: 16.8%
  PLATELET COUNT: 1104.33 x10E3/uL
  ALANINE AMINOTRANSFERASE: 31.67 u/L
  ALBUMIN: 3.93 G/DL
  ALKALINE PHOSPHATASE: 394.67 u/L
  ASPARTATE AMINOTRANSFERASE: 65.67 u/L
  BLOOD UREA NITROGEN: 15.67 mg/dL
  CARBON DIOXIDE: 40.67 mmol/L
  CHLORIDE: 104.33 MEQ/L
  CHOLESTEROL: 66.33 mg/dL
  CREATINE PHOSPHOKINASE: 346.67 u/L
  CREATININE: 0.33 mg/dL
  GLUCOSE: 176.67 mg/dL
  LIPASE: 14.33 u/L
  PHOSPHORUS: 11.17 mg/dL
  POTASSIUM: 6.53 MEQ/L
  SODIUM: 146 MEQ/L
